Values belong to the compound of their own block, whether it stands above or below them.
Columns and labels:
[1] = biological target: T1, E. coli β-galactosidase (LacZ) (Escherichia coli, UniProt P00722); assay type: biochemical
Method: In the enzyme inhibition assay, the rate of catalysis is determined by using a non-fluorescent substrate for LacZ, fluorescein mono-β-D-galactoside (FMG) (FMG), and measuring the appearance of the fluorescent product, fluorescein (excitation 488 nm, emission 514 nm). All components of the LacZ inhibition assay are dissolved in assay buffer (10 mm MgCl2, 50 mM NaCl, 1 mM DTT, 100 μg/ml BSA, 10 mM Tris-HCl, pH 7.9.
Leading into each droplet forming module (FIG. 15) are two Teflon tubes leading from syringe pumps. The channels leading from each tube merge to create a single flow before entering the droplet forming module. The two syringes feeding into the first droplet forming module contain, (a) 50 μM PETG in assay buffer, and (b), assay buffer. The two syringes feeding into the second droplet forming module contain, (c) 100 nM LacZ in assay buffer and (d), assay buffer. The two syringes feeding into the third droplet forming module contain, (e) 5 mM FMG in assay buffer, and (f), assay buffer. The final concentration of each component in each droplet is independently controllable by adjusting relative flow rates of each component and buffer solution while maintaining a constant combined flow rate from both syringes.
The first droplet fusion mixes the inhibitor (PETG) with the enzyme (LacZ). After the combined droplet has spent two minutes in a delay line it is fused with a third droplet containing the fluorogenic enzyme substrate (FMG). Finally, after all the components are mixed the reaction is observed by measuring fluorescence of individual droplets or by integrating fluorescent light from droplets with the same concentration of each component during 10-second exposure time at multiple points in the second 10 min long delay line. Each fluorescence intensity value at different positions is proportional to the amount of product at different reaction times. Rate of product formation is linear during initial reaction time and initial rate (ν) can be determined from linear fitting. […]

[2] = biological target: T1, E. coli β-galactosidase (LacZ); details: Huang, 1991, cited from earlier work
[3] = Compartmentalisation of small molecules in water-in-fluorocarbon emulsions (epifluorescence microscopy); assay type: physicochemical; details: water-in-perfluorooctyl bromide emulsions mixed by vortexing, imaged after 24 hours
Method: FIG. 19. Compartmentalisation of small molecules in water-in-fluorocarbon emulsions. Water-in-perfluorooctyl bromide emulsions were made containing texas red (1 mM) and calcein ([…] in the aqueous phase by homogenisation as described in example 9. The two emulsions were mixed by vortexing and imaged by epifluorescence microscopy after 24 hours. No exchange of texas-red (red fluorescence) and calcein (green fluorescence) between microdroplets could be observed.
Water-in-fluorocarbon emulsions containing 95% (v/v) perfluorooctyl bromide, 5% (v/v) phosphate buffered saline containing the molecule of interest in solution, and 2% (w/v) C8F17C11H22OP(O)[N(CH2CH2)2O]2 (F8H1DMP) as surfactant were formed essentially as (Sadtler et al., 1996) by extrusion (15 times) through 14 μm filters (Osmonics) or by homogenising for 5 min at 25,000 r.p.m. using an Ultra-Turrax T8 Homogenizer (IKA) with a 5 mm dispersing tool. Emulsions were made containing a series of small fluorescent molecules dissolved in the aqueous phase at concentrations from […] to 2 mM. These molecules, including calcein, texas red, fluorescein, coumarin 102, 7-hydroxycoumarin-3-carboxylic acid and 7-diethylamino-4-methyl coumarin (coumarin 1), had molecular weights from 203 to 625 Da and Log P values—calculated using SRC's Log Kow/KowWin Program (Meylan and Howard, 1995)—ranging from −0.49 to 4.09. […]

[4] = biological target: T2, human recombinant PTP1B, residues 1-322 (Homo sapiens, UniProt P18031); assay: Screening for PTP1B inhibitors using microcapsules in a microfluidic system (DiFMUP fluorescence); assay type: biochemical; details: 100 μM compound solution, PTP1B 50 mU/ml, substrate DiFMUP, excitation/emission 358/452 nm
T2 construct: human recombinant PTP1B, residues 1-322; purchased Biomol Research Laboratories, Inc
T2 sequence (P18031 1-322): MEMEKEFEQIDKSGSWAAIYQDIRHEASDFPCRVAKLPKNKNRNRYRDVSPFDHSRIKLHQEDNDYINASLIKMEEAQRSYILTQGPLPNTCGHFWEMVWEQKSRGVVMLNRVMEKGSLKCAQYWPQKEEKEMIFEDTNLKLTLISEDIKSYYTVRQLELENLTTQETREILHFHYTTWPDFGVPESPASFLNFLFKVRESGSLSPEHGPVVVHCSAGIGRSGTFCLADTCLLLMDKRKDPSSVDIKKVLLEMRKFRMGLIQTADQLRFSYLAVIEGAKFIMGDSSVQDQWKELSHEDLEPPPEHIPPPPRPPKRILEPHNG
Method: All water-soluble reagents are dissolved in (25 mM HEPES, pH 7.4, 125 mM NaCl, 1 mM EDTA), a buffer compatible with PTP1B activity. […] Each microcapsule containing target enzyme is fused with a microcapsule containing compound 2 or a microcapsule containing hydrocinnamic acid. Microcapsules containing either compound 2 or hydrocinnamic acid can be formed by switching between injection with syringes containing compound 2 and hydrocinnamic acid.
After microcapsule fusion the contents are rapidly mixed. After this point the microcapsules are run for up to 1 min through a 60 cm long microchannel (to allow inhibitor binding). This microchannel is then merged with a second microchannel containing, aqueous microcapsules containing the fluorogenic PTP1B substrate 6,8-difluoro-4-methylumbelliferyl phosphate (DiFMUP) (Molecular Probes) in 25 mM HEPES, pH 7.4, 125 mM NaCl, 1 mM EDTA and the microcapsules fused pairwise. The fused microcapsules are then run for up to 2 min through a 60 cm long microchannel. Fluorescence of the microcapsules due to production of DiFMU (excitation/emmission maxima 358/452 nm; blue fluorescence) is measured.

PTP1B = biological target: T3, PTP1B (Homo sapiens, UniProt P18031); details: Johnson et al., 2002; cited from earlier work
T3 sequence (P18031 1-435): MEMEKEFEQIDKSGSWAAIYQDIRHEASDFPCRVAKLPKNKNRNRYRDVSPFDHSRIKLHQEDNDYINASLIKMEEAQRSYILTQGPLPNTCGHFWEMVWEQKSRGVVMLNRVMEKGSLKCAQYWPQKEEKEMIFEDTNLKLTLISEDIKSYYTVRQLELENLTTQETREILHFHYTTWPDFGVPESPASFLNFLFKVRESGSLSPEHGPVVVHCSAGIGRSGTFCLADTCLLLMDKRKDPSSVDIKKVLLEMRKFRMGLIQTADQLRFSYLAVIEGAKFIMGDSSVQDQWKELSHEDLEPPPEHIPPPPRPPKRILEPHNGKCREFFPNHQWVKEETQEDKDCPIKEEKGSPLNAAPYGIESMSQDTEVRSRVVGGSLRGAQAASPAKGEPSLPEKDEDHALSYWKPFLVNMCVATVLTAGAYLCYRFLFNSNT

[5] = 30 nM LacZ, 0 to 13 μM PETG, 10 to 700 μM FMG

T1 sequence (P00722 2-1024): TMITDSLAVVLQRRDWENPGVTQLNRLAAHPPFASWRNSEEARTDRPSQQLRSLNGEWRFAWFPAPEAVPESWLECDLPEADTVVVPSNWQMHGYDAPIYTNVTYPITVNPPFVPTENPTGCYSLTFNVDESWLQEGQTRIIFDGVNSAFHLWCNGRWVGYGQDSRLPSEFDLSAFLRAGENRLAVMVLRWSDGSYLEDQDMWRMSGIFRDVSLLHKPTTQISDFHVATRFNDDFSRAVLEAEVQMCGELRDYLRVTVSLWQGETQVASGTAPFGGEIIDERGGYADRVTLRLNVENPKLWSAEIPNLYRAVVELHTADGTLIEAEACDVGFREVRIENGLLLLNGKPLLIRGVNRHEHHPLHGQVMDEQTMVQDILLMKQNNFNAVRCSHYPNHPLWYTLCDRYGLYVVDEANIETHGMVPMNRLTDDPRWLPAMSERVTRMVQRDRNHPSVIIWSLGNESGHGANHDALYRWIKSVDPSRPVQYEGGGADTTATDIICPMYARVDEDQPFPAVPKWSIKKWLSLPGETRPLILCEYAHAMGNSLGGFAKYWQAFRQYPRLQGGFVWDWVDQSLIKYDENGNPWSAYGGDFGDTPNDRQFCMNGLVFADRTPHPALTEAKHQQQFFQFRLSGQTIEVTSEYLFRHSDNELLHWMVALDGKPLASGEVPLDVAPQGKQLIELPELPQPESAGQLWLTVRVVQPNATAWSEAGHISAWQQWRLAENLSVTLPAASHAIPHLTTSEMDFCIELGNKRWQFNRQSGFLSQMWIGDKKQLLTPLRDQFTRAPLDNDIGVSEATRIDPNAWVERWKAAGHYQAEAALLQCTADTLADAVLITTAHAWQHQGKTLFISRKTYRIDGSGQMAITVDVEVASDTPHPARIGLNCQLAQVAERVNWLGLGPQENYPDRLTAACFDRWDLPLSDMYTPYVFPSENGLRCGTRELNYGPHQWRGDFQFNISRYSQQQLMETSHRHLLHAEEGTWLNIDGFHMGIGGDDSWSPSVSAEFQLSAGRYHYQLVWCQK

Compound: O=C1OC2(c3ccc(O)cc3Oc3cc(O[C@@H]4O[C@H](CO)[C@H](O)[C@H](O)[C@H]4O)ccc32)c2ccccc21 (stereo partly drawn) [FMG, fluorescein mono-β-D-galactoside]
KM of FMG for LacZ determined in fused microcapsules, deviation from previously published value [1, 5]: ≤ 20% | Km ([2]; read-out: KM of FMG for LacZ, previously published value): 118 µM

Compound: OCC1OC(SCCc2ccccc2)C(O)C(O)C1O [PETG, phenylethyl β-D-thiogalactopyranoside]
Ki of PETG for LacZ determined in fused microcapsules [1, 5]: within the range of the previously published value | Mode of inhibition ([1]; Lineweaver-Burk plot, same y-intercept at different PETG concentrations): competitive | Ki ([2]; read-out: Ki of PETG for LacZ, previously published value): 980 nM

Exchange between microdroplets/compartments [3]: No exchange
Compound: O=C(O)CN(CC(=O)O)Cc1cc2c(cc1O)Oc1cc(O)c(CN(CC(=O)O)CC(=O)O)cc1C21OC(=O)c2ccccc21 [calcein]

Fluorescence of the microcapsules due to production of DiFMU (blue fluorescence) [4]: exhibiting blue fluorescence
Compound: O=C(O)CCc1ccccc1 [hydrocinnamic acid]
PTP1B inhibitor status / relative potency (PTP1B): not a PTP1B inhibitor

Exchange between microdroplets/compartments [3]: No exchange
Compound: texas red
